# From patent publication US5968910A, “Compositions containing two or three inhibitors of different HIV reverse transcriptases” (priority 1994, dated 1999)
# Like-named read-outs stand apart in the source and are kept apart here.
# How the values were obtained:
# HIV-1 RT (WT) = HIV-1 RT (WT) (Human immunodeficiency virus type 1 group M subtype B, UniProt P03366); test: biochemical
# Procedure, shortened: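 Recombinant HIV-1 RT incubated 30 min at 37° C with poly(C).oligo(dG) (0.1 mM) and [³H]dGTP (2.95 μM) in Tris pH 7.8 with 5 mM MgCl2, 150 mM KCl, DTT, glutathione, Triton X-100; 5-fold compound dilutions. Acid-insoluble radioactivity counted after TCA/pyrophosphate precipitation.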
# HIV-1/V(0.5) 103-Asn = test: Sensitivity of mutant HIV-1 strain in CEM cell cultures; assay type: cell-based; settings: Human immunodeficiency virus 1, CCRF-CEM; Table 5; read-out: EC50
# Procedure, shortened: (§1)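 Syncytium formation read out after 4 days at 37° C. Cultures: CEM cells, 250,000/ml, infected at 100 50% cell culture infective doses/ml and added to compound dilutions.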
# HIV-1/Pyr (181-Cys) = test: as above; assay type: cell-based; settings: Human immunodeficiency virus 1, CCRF-CEM; CEM cells, Table 1; read-out: 50% Effective Concentration
# Procedure, shortened: as §1
# [1] = tested on: HIV-1/V(0.1) 101-Ile + 141-Glu; test: as above; assay type: cell-based; settings: Human immunodeficiency virus 1, CCRF-CEM; Table 5; read-out: EC50
# Procedure, shortened: as §1
# [2] = tested on: HIV-1/TIBO R82150 (100-Ile); test: as above; assay type: cell-based; settings: Human immunodeficiency virus 1, CCRF-CEM; CEM cells, Table 1; read-out: 50% Effective Concentration
# Procedure, shortened: as §1
# HIV-1/I(0.1) 103-Asn = test: as above; assay type: cell-based; settings: Human immunodeficiency virus 1, CCRF-CEM; Table 5; read-out: EC50
# Procedure, shortened: as §1
# HIV-1/III(0.1) 103-Asn = test: as above; assay type: cell-based; settings: Human immunodeficiency virus 1, CCRF-CEM; Table 5; read-out: EC50
# Procedure, shortened: as §1
# HIV-1/IV(0.1) 103-Thr = test: as above; assay type: cell-based; settings: Human immunodeficiency virus 1, CCRF-CEM; Table 5; read-out: EC50
# Procedure, shortened: as §1
# HIV-1/II(0.1) 100-Ile = test: as above; assay type: cell-based; settings: Human immunodeficiency virus 1, CCRF-CEM; Table 5; read-out: EC50
# Procedure, shortened: as §1
# [3] = tested on: HIV-1/TSAO-m^3 T (138-Lys); test: as above; assay type: cell-based; settings: Human immunodeficiency virus 1, CCRF-CEM; CEM cells, Table 1; read-out: 50% Effective Concentration
# Procedure, shortened: as §1
# [4] = tested on: HIV-1/TIBO R82913 (103-Asn); test: as above; assay type: cell-based; settings: Human immunodeficiency virus 1, CCRF-CEM; CEM cells, Table 1; read-out: 50% Effective Concentration
# Procedure, shortened: as §1
# HIV-1/Nev (106-Ala) = test: as above; assay type: cell-based; settings: Human immunodeficiency virus 1, CCRF-CEM; CEM cells, Table 1; read-out: 50% Effective Concentration
# Procedure, shortened: as §1
# HIV-1(IIIB) (WT) = test: microbe, parasite or virus in culture; assay type: cell-based; settings: Human immunodeficiency virus 1, IIIB, CCRF-CEM
# Procedure, shortened: as §1
# HIV-1(IIIB) = test: Knock-out concentrations: breakthrough of HIV-1(IIIB)-induced cytopathicity in CEM cell cultures; assay type: cell-based; settings: for activity at 0.1 µg/mL / activity at 0.5 µg/mL / activity at 2.5 µg/mL: Human immunodeficiency virus 1, IIIB, CCRF-CEM, read-out: HIV-1-induced cytopathicity in cell culture; for activity at 0.1 µg/mL: 0.1 μg/ml; for activity at 0.5 µg/mL: 0.5 μg/ml; for activity at 2.5 µg/mL: 2.5 μg/ml
# Procedure, shortened: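 CEM cells in RPMI 1640 with 10% FBS infected with HIV-1(IIIB) at ~1000× CCID50, subcultured every 3–4 days into fresh uninfected cells with drug held constant for 10 subcultivations (35 days), then ≥5 drug-free passages. Breakthrough scored by syncytium formation. Combinations used the two lowest single-drug starting concentrations.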
# [5] = 936 h, day 39 post infection, compound absent from day 35
# [6] = 1008 h, day 42 post infection, compound absent from day 35
# [7] = 1104 h, day 46 post infection, compound absent from day 35
# [8] = 1176 h, day 49 post infection, compound absent from day 35
# [9] = 1272 h, day 53 post infection, compound absent from day 35
compound,measurement,setting,value
Cc1occc1C(=S)Nc1ccc(Cl)c(C(=O)OC2CCCCC2)c1 [Compound III],IC50,"HIV-1 RT (WT); range stated for the compounds together, poly(C).oligo(dG), 2.95 μM [2,8-3H]dGTP, read-out: IC50 on recombinant HIV-1 RT",47.6 to 204 nM
same,IC50,"HIV-1 RT (WT); substrate [2,8-3H]dGTP 2.95 μM, template poly(rC)oligo(dG), read-out: IC50, anti-HIV-1 RT (WT) activity (converted)",146 nM
same,EC50,HIV-1/V(0.5) 103-Asn,0.85 µg/mL
same,EC50,HIV-1/Pyr (181-Cys),0.07 µg/mL
same,EC50,[1],0.05 µg/mL
same,EC50,[2],0.17 µg/mL
same,EC50,HIV-1/I(0.1) 103-Asn,0.3 µg/mL
same,EC50,HIV-1/III(0.1) 103-Asn,0.16 µg/mL
same,EC50,HIV-1/IV(0.1) 103-Thr,1.1 µg/mL
same,EC50,HIV-1/II(0.1) 100-Ile,0.87 µg/mL
same,EC50,[3],0.035 µg/mL
same,EC50,[4],0.7 µg/mL
same,EC50,HIV-1/Nev (106-Ala),0.057 µg/mL
same,EC50,"HIV-1(IIIB) (WT); CEM cells, Table 1, read-out: 50% Effective Concentration",0.004 µg/mL
same,EC50,"HIV-1(IIIB) (WT); HIV-1 (III8), Table 5, read-out: EC50",0.004 µg/mL
same,IC50,"HIV-1(IIIB) (WT); range stated for Compounds I-V together, read-out: 50% inhibitory concentration, HIV-1(IIIB) replication in CEM cells",0.004 to 0.05 µg/mL
same,"prevention of virus breakthrough, fold more efficient than BHAP",HIV-1(IIIB),at least 5 fold
same,"prevention of virus breakthrough, fold more efficient than nevirapine",HIV-1(IIIB),≥ 25 fold
same,activity at 0.1 µg/mL,"HIV-1(IIIB); 96 h, day 4 post infection",0%
same,activity at 0.5 µg/mL,"HIV-1(IIIB); 96 h, day 4 post infection",0%
same,activity at 2.5 µg/mL,"HIV-1(IIIB); 96 h, day 4 post infection",0%
same,activity at 0.1 µg/mL,"HIV-1(IIIB); 192 h, day 8 post infection",0%
same,activity at 0.5 µg/mL,"HIV-1(IIIB); 192 h, day 8 post infection",0%
same,activity at 2.5 µg/mL,"HIV-1(IIIB); 192 h, day 8 post infection",0%
same,activity at 0.1 µg/mL,"HIV-1(IIIB); 264 h, day 11 post infection",0%
same,activity at 0.5 µg/mL,"HIV-1(IIIB); 264 h, day 11 post infection",0%
same,activity at 2.5 µg/mL,"HIV-1(IIIB); 264 h, day 11 post infection",0%
same,activity at 0.1 µg/mL,"HIV-1(IIIB); 336 h, day 14 post infection",6.2%
same,activity at 0.5 µg/mL,"HIV-1(IIIB); 336 h, day 14 post infection",0%
same,activity at 2.5 µg/mL,"HIV-1(IIIB); 336 h, day 14 post infection",0%
same,activity at 0.1 µg/mL,"HIV-1(IIIB); 408 h, day 17 post infection",50%
same,activity at 0.5 µg/mL,"HIV-1(IIIB); 408 h, day 17 post infection",0%
same,activity at 2.5 µg/mL,"HIV-1(IIIB); 408 h, day 17 post infection",0%
same,activity at 0.1 µg/mL,"HIV-1(IIIB); 504 h, day 21 post infection",100%
same,activity at 0.5 µg/mL,"HIV-1(IIIB); 504 h, day 21 post infection",0%
same,activity at 2.5 µg/mL,"HIV-1(IIIB); 504 h, day 21 post infection",0%
same,activity at 0.1 µg/mL,"HIV-1(IIIB); 600 h, day 25 post infection",100%
same,activity at 0.5 µg/mL,"HIV-1(IIIB); 600 h, day 25 post infection",0%
same,activity at 2.5 µg/mL,"HIV-1(IIIB); 600 h, day 25 post infection",0%
same,activity at 0.1 µg/mL,"HIV-1(IIIB); 672 h, day 28 post infection",100%
same,activity at 0.5 µg/mL,"HIV-1(IIIB); 672 h, day 28 post infection",0%
same,activity at 2.5 µg/mL,"HIV-1(IIIB); 672 h, day 28 post infection",0%
same,activity at 0.1 µg/mL,"HIV-1(IIIB); 768 h, day 32 post infection",100%
same,activity at 0.5 µg/mL,"HIV-1(IIIB); 768 h, day 32 post infection",0%
same,activity at 2.5 µg/mL,"HIV-1(IIIB); 768 h, day 32 post infection",0%
same,activity at 0.1 µg/mL,"HIV-1(IIIB); 840 h, day 35 post infection",100%
same,activity at 0.5 µg/mL,"HIV-1(IIIB); 840 h, day 35 post infection",0%
same,activity at 2.5 µg/mL,"HIV-1(IIIB); 840 h, day 35 post infection",0%
same,activity at 0.1 µg/mL,HIV-1(IIIB); [5],100%
same,activity at 0.5 µg/mL,HIV-1(IIIB); [5],0%
same,activity at 2.5 µg/mL,HIV-1(IIIB); [5],0%
same,activity at 0.1 µg/mL,HIV-1(IIIB); [6],100%
same,activity at 0.5 µg/mL,HIV-1(IIIB); [6],0%
same,activity at 2.5 µg/mL,HIV-1(IIIB); [6],0%
same,activity at 0.1 µg/mL,HIV-1(IIIB); [7],100%
same,activity at 0.5 µg/mL,HIV-1(IIIB); [7],0%
same,activity at 2.5 µg/mL,HIV-1(IIIB); [7],0%
same,activity at 0.1 µg/mL,HIV-1(IIIB); [8],100%
same,activity at 0.5 µg/mL,HIV-1(IIIB); [8],0%
same,activity at 2.5 µg/mL,HIV-1(IIIB); [8],0%
same,activity at 0.1 µg/mL,HIV-1(IIIB); [9],100%
same,activity at 0.5 µg/mL,HIV-1(IIIB); [9],0%
same,activity at 2.5 µg/mL,HIV-1(IIIB); [9],0%
same,concentration at which virus emerged (virus breakthrough),"HIV-1(IIIB); tested at 0.1, 0.5 and 2.5 μg/ml, 35 days",0.1 µg/mL
